Tests used:
[1] = test system: MDA-MB-231 human breast adenocarcinoma cell line; assay: Sulforhodamine B antiproliferative assay, MDA-MB-231; format: cell-based; details: MDA-MB-231, read-out: IC50 MDA-MB-231, mean ± SEM
[2] = test system: DU-145 prostate cancer cell line; assay: Sulforhodamine B antiproliferative assay, DU-145; format: cell-based; details: Homo sapiens, DU-145, read-out: IC50 DU-145, mean ± SEM
[3] = test system: A549 lung cancer cell line; assay: Sulforhodamine B antiproliferative assay, A549; format: cell-based; details: Homo sapiens, A549, read-out: IC50 A549, mean ± SEM
[4] = test system: HeLa cervical cancer cell line; assay: Sulforhodamine B antiproliferative assay, HeLa; format: cell-based; details: Homo sapiens, read-out: IC50 HeLa, mean ± SEM
[5] = test system: HEK-293 primary human embryonic kidney cell line; assay: Sulforhodamine B assay, control cell line HEK-293; format: cell-based; details: HEK293, read-out: IC50 HEK-293, mean ± SEM, normal control cells
DU-145 cells = assay: Immunoblot of apoptotic proteins; format: cell-based, human; details: DU-145, immunoblot, vs vehicle control
HeLa cells = details: read-out: IC50 HeLa (reported literature value); cited from earlier work

IC50 [1] [µM]	IC50 [2] [nM]	IC50 [3] [µM]	IC50 [4] [µM]	Molecule	IC50 [5] [µM]	Annexin V protein expression (DU-145 cells)	BAX protein expression (DU-145 cells)	IC50 (HeLa cells) [nM]
8 ± 0.4	2000 ± 800	0.5 ± 0.03	26 ± 3	CC(O)[C@@H]1CCCN1C(=O)[C@@H]1CCCN1C(=O)OC(C)(C)C (mixture of isomers) [Compound 22, (2S)-tert-Butyl 2-((2S)-2-(1-Hydroxyethyl)pyrrolidine-1-carbonyl)pyrrolidine-1-carboxylate]	3390 ± 123			
164 ± 20	123000 ± 20000	167 ± 12	122 ± 14	C#CCCCC[C@H](C)C[C@@H](C)C(=O)O [Compound 2, (2R,4S)-2,4-Dimethyldec-9-ynoic Acid]	259 ± 35			
102 ± 14	188000 ± 29000	158 ± 15	160 ± 10	C#CCCCC[C@H](C)C[C@@H](C)C(=O)N1C(=O)OC[C@H]1Cc1ccccc1 [Compound 17, (R)-4-Benzyl-3-((2R,4S)-2,4-dimethyldec-9-ynoyl)oxazolidin-2-one]	293 ± 16			
3 ± 0.1	1000 ± 900	5 ± 0.4	5 ± 1	CC(=O)[C@@H]1CCCN1C(=O)[C@@H]1CCCN1C(=O)OC(C)(C)C [Compound 21, tert-Butyl(S)-2-((S)-2-acetylpyrrolidine-1-carbonyl)pyrrolidine-1-carboxylate]	5440 ± 245			
1 ± 0.1	500 ± 200	1 ± 0.1		COc1cccc2c1C(=O)c1c(O)c3c(c(O)c1C2=O)C[C@@](O)(C(=O)CO)C[C@@H]3O[C@H]1C[C@H](N)[C@H](O)[C@H](C)O1 [doxorubicin, reference compound]	39 ± 2	highly expressed	highly expressed	
				jahanyne				1800

Reference: PMC6045489 (ACS Omega, 2018)
